Test results: patent publication US7238689B2, “Isoxazoline derivative and herbicide comprising the same as active ingredient” (Ihara Chemical Industry Co., Ltd., priority 2001, dated 2007)

Columns and labels:
[1] = system: Monochoria vaginalis (Murm. f.) Presl var. plantaginea (Roxb.) Solms-Laub.; assay: Herbicidal effect by paddy field soil treatment; format: in vivo; parameters: scale not given here; conditions: wettable powder, active ingredient 1000 g/ha, examined at the 21st day from the treatment
In short: (§1)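 Seeds sown in puddled paddy soil under 3 cm of water; the next day wettable powders diluted in water were dropped onto the water surface at 1,000 g active ingredient/ha. Plants grown in a greenhouse, with herbicidal effect scored on day 21 against a rating standard.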

[2] = system: Echinochloa oryzicola Vasing; assay: Herbicidal effect by paddy field soil treatment; format: in vivo; parameters: scale not given here; conditions: wettable powder, active ingredient 1000 g/ha, examined at the 21st day from the treatment
In short: as §1

[3] = system: Echinochloa crus-galli (L.) Beauv. var. crusgalli; assay: Herbicidal effect by upland field soil treatment; format: in vivo; parameters: scale not given here; conditions: active ingredient 1000 g/ha, examined at 21st day from treatment
Text: (§2) An upland field soil was filled in a plastic pot of 80 cm^2. Seeds of Echinochloa crus-galli (L.) Beauv. var. crusgalli and Setaria viridis (L.) Beauv. were sowed, followed by covering with the same soil. […] Then, breeding was made in a greenhouse, and the herbicidal effect of each wettable powder was examined at the 21st day from the treatment in accordance with the standard shown in Table 21.

[4] = system: Setaria viridis (L.) Beauv.; assay: Herbicidal effect by upland field soil treatment; format: in vivo; parameters: scale not given here; conditions: active ingredient 1000 g/ha, examined at 21st day from treatment
Text: as §2

[5] = system: Echinochloa crus-galli (L.) Beauv. var. crus-galli; assay: Herbicidal effect by upland foliage treatment; format: in vivo; parameters: scale not given here; conditions: active ingredient 1000 g/ha, examined at 14th day from treatment
In short: (§3)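 Two-week-old greenhouse plants in sand were sprayed over the whole foliage with water-diluted wettable powder at 1,000 liters per hectare, giving 1,000 g active ingredient per hectare. Herbicidal effect scored on a rating standard at day 14 after treatment.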

[6] = system: Setaria viridis (L.) Beauv.; assay: Herbicidal effect by upland foliage treatment; format: in vivo; parameters: scale not given here; conditions: active ingredient 1000 g/ha, examined at 14th day from treatment
In short: as §3

In the case of `CC1(C)CC(SCc2c(Cl)nn(C(F)F)c2C(F)(F)F)=NO1` [3-0009, 3-(3-chloro-1-difluoromethyl-5-trifluoromethyl-1H-pyrazol-4-ylmethylthio)-5,5-dimethyl-2-isoxazoline], the “Herbicidal effect index, Monochoria vaginalis (Burm. F.) Presl var. plantaginea (Roxb.) Solms-Laub.” value (“Herbicidal effect index … (Roxb.) Solms-Laub.” below) [1] is reported as 5, the “Herbicidal effect index, Echinochloa oryzicola Vasing” value [2] is reported as 5 and the melting point is reported as 89 to 90 °C. The “herbicidal effect (index per standard of Table 21), Echinochloa curs-galli (L.) Beauv. Var. crus-galli” value [3] was 5 and the “herbicidal effect (index per standard of Table 21), Setaria viridis (L.) Beauv.” value [4] was 5.
For `CCn1nc(Cl)c(CS(=O)(=O)C2=NOC(C)(C)C2)c1Cl` [3-0017, 3-(3,5-dichloro-1-ethyl-1H-pyrazol-4-ylmethylsulfonyl)-5,5-dimethyl-2-isoxazoline], the melting point was 105 to 107 °C, the “herbicidal effect (index per standard of Table 21), Echinochloa curs-galli (L.) Beauv. Var. crus-galli” value [3] was 5 and the “herbicidal effect (index per standard of Table 21), Setaria viridis (L.) Beauv.” value [4] was 5.
In the case of `CC1(C)CC(S(=O)(=O)Cc2c(C(F)(F)F)nn(-c3ccccc3)c2Cl)=NO1` [3-0002, 3-(5-chloro-1-phenyl-3-trifluoromethyl-1H-pyrazol-4-ylmethylsulfonyl)-5,5-dimethyl-2-isoxazoline], the “Herbicidal effect index … (Roxb.) Solms-Laub.” value [1] is reported as 5, the “Herbicidal effect index, Echinochloa oryzicola Vasing” value [2] is reported as 5 and the melting point is reported as 132 to 133 °C. The “herbicidal effect (index per standard of Table 21), Echinochloa curs-galli (L.) Beauv. Var. crus-galli” value [3] was 5 and the “herbicidal effect (index per standard of Table 21), Setaria viridis (L.) Beauv.” value [4] was 5.
In the case of `CC1(C)CC(S(=O)(=O)Cc2c(C(F)(F)F)nn3c2OCCC3)=NO1` [3-0019, 3-(5,5-dimethyl-2-isoxazolin-3-ylsulfonylmethyl)-2-trifluoromethyl-6,7-dihydro-5H-pyrazolo[5,1-b][1,3]oxazine], the melting point is reported as 151 to 152 °C, the “herbicidal effect (index per standard of Table 21), Echinochloa curs-galli (L.) Beauv. Var. crus-galli” value [3] is reported as 5 and the “herbicidal effect (index per standard of Table 21), Setaria viridis (L.) Beauv.” value [4] is reported as 5.
For `CCS(=O)(=O)c1c(CS(=O)(=O)C2=NOC(C)(C)C2)c(C(F)(F)F)nn1-c1ccccc1` [3-0004, 5,5-dimethyl-3-(5-ethylsulfonyl-1-phenyl-3-trifluoromethyl-1H-pyrazol-4-ylmethylsulfonyl)-2-isoxazoline], the “Herbicidal effect index … (Roxb.) Solms-Laub.” value [1] was 5, the “Herbicidal effect index, Echinochloa oryzicola Vasing” value [2] was 5 and the melting point was 158 to 160 °C. For the same compound, the “herbicidal effect (index per standard of Table 21), Echinochloa curs-galli (L.) Beauv. Var. crus-galli” value [3] was 5 and the “herbicidal effect (index per standard of Table 21), Setaria viridis (L.) Beauv.” value [4] was 5.
Compound `CC1(C)CC(SCc2c(C(F)(F)F)n[nH]c2Cl)=NO1` [3-0007, 3-(5-chloro-3-trifluoromethyl-1H-pyrazol-4-ylmethylthio)-5,5-dimethyl-2-isoxazoline] has a melting point of 120 to 122 °C.
With `CC1(C)CC(SCc2c(C(F)(F)F)nn(C(C)(C)C)c2Cl)=NO1` [3-0006, 3-(1-tert-butyl-5-chloro-3-trifluoromethyl-1H-pyrazol-4-ylmethylthio)-5,5-dimethyl-2-isoxazoline] the melting point was 79 to 81 °C, the “herbicidal effect (index per standard of Table 21), Echinochloa curs-galli (L.) Beauv. Var. crus-galli” value [3] was 4 and the “herbicidal effect (index per standard of Table 21), Setaria viridis (L.) Beauv.” value [4] was 4.
Compound `CC1(C)CC(S(=O)(=O)Cc2cnccc2C(F)(F)F)=NO1` [7-0001, 5,5-dimethyl-3-(4-trifluoromethyl-pyridin-3-ylmethylsulfonyl)-2-isoxazoline] has a melting point of 77 to 80 °C.
For `CCOc1nn(C)c(C(F)(F)F)c1CS(=O)(=O)C1=NOC(C)(C)C1` [3-0012, 5,5-dimethyl-3-(3-ethoxy-1-methyl-5-trifluoromethyl-1H-pyrazol-4-ylmethylsulfonyl)-2-isoxazoline], the melting point was 124 to 125 °C, the “herbicidal effect (index per standard of Table 21), Echinochloa curs-galli (L.) Beauv. Var. crus-galli” value [3] was 5 and the “herbicidal effect (index per standard of Table 21), Setaria viridis (L.) Beauv.” value [4] was 5.
Compound `CN(C)c1c(CS(=O)(=O)C2=NOC(C)(C)C2)c(C(F)(F)F)nn1-c1ccccc1` [3-0005, 5,5-dimethyl-3-(5-dimethylamino-1-phenyl-3-trifluoromethyl-1H-pyrazol-4-ylmethylsulfonyl)-2-isoxazoline] has a melting point of 150 to 151 °C.
For `Cn1nc(C(F)(F)F)c(CS(=O)(=O)C2=NOC(C)(C)C2)c1Oc1ccccc1Cl` [3-0014, 3-(5-(2-chlorophenoxy)-1-methyl-3-trifluoromethyl-1H-pyrazol-4-ylmethylsulfonyl)-5,5-dimethyl-2-isoxazoline], the “Herbicidal effect index … (Roxb.) Solms-Laub.” value [1] was 5, the “Herbicidal effect index, Echinochloa oryzicola Vasing” value [2] was 5 and the melting point was 67 to 70 °C.
With `Cn1nc(C(F)F)c(CS(=O)(=O)C2=NOC(C)(C)C2)c1Cl` [3-0018, 3-(5-chloro-3-difluoromethyl-1-methyl-1H-pyrazol-4-ylmethylsulfonyl)-5,5-dimethyl-2-isoxazoline] the melting point was 78 to 79 °C, the “herbicidal effect (index per standard of Table 21), Echinochloa curs-galli (L.) Beauv. Var. crus-galli” value [3] was 5 and the “herbicidal effect (index per standard of Table 21), Setaria viridis (L.) Beauv.” value [4] was 5.
With `Cc1nsc(Cl)c1CS(=O)(=O)C1=NOC(C)(C)C1` [4-0002, [(5-chloro-3-methyl-isothiazol-4-yl)-methylsulfonyl]-5,5-dimethyl-2-isoxazoline] the “Herbicidal effect index … (Roxb.) Solms-Laub.” value [1] was 5, the “Herbicidal effect index, Echinochloa oryzicola Vasing” value [2] was 5 and the “herbicidal effect (index per standard of Table 21), Echinochloa curs-galli (L.) Beauv. Var. crus-galli” value [5] was 5. The “herbicidal effect (index per standard of Table 21), Setaria viridis (L.) Beauv.” value [6] was 4, the “herbicidal effect (index per standard of Table 21), Echinochloa curs-galli (L.) Beauv. Var. crus-galli” value [3] was 5 and the “herbicidal effect (index per standard of Table 21), Setaria viridis (L.) Beauv.” value [4] was 5.
`CC1(C)CC(SCc2c(C(F)(F)F)nn(-c3ccccc3)c2Cl)=NO1` [3-0001, 3-(5-chloro-1-phenyl-3-trifluoromethyl-1H-pyrazol-4-ylmethylthio)-5,5-dimethyl-2-isoxazoline] gave a melting point of 89 to 90 °C.
With `COCn1nc(Cl)c(CS(=O)(=O)C2=NOC(C)(C)C2)c1C(F)(F)F` [3-0119] the “Herbicidal effect index … (Roxb.) Solms-Laub.” value [1] was 5, the “Herbicidal effect index, Echinochloa oryzicola Vasing” value [2] was 5 and the “herbicidal effect (index per standard of Table 21), Echinochloa curs-galli (L.) Beauv. Var. crus-galli” value [5] was 5. For the same compound, the “herbicidal effect (index per standard of Table 21), Setaria viridis (L.) Beauv.” value [6] was 4, the “herbicidal effect (index per standard of Table 21), Echinochloa curs-galli (L.) Beauv. Var. crus-galli” value [3] was 5 and the “herbicidal effect (index per standard of Table 21), Setaria viridis (L.) Beauv.” value [4] was 5.
With `CC1(C)CC(S(=O)(=O)Cc2csc(Cl)n2)=NO1` [9-0008] the “Herbicidal effect index … (Roxb.) Solms-Laub.” value [1] was 5, the “Herbicidal effect index, Echinochloa oryzicola Vasing” value [2] was 5 and the “herbicidal effect (index per standard of Table 21), Echinochloa curs-galli (L.) Beauv. Var. crus-galli” value [5] was 4. The “herbicidal effect (index per standard of Table 21), Setaria viridis (L.) Beauv.” value [6] was 4, the “herbicidal effect (index per standard of Table 21), Echinochloa curs-galli (L.) Beauv. Var. crus-galli” value [3] was 5 and the “herbicidal effect (index per standard of Table 21), Setaria viridis (L.) Beauv.” value [4] was 5.
With `Cc1cc(CS(=O)(=O)C2=NOC(C)(C)C2)no1` [6-0004] the “Herbicidal effect index … (Roxb.) Solms-Laub.” value [1] was 5, the “Herbicidal effect index, Echinochloa oryzicola Vasing” value [2] was 5 and the “herbicidal effect (index per standard of Table 21), Echinochloa curs-galli (L.) Beauv. Var. crus-galli” value [5] was 5. The “herbicidal effect (index per standard of Table 21), Setaria viridis (L.) Beauv.” value [6] was 4, the “herbicidal effect (index per standard of Table 21), Echinochloa curs-galli (L.) Beauv. Var. crus-galli” value [3] was 5 and the “herbicidal effect (index per standard of Table 21), Setaria viridis (L.) Beauv.” value [4] was 5.
For `CC1(C)CC(S(=O)(=O)Cc2ncon2)=NO1` [9-0005], the “Herbicidal effect index … (Roxb.) Solms-Laub.” value [1] was 5, the “Herbicidal effect index, Echinochloa oryzicola Vasing” value [2] was 5 and the “herbicidal effect (index per standard of Table 21), Echinochloa curs-galli (L.) Beauv. Var. crus-galli” value [5] was 4. For the same compound, the “herbicidal effect (index per standard of Table 21), Setaria viridis (L.) Beauv.” value [6] was 4, the “herbicidal effect (index per standard of Table 21), Echinochloa curs-galli (L.) Beauv. Var. crus-galli” value [3] was 5 and the “herbicidal effect (index per standard of Table 21), Setaria viridis (L.) Beauv.” value [4] was 4.
With `CC1(C)CC(S(=O)(=O)Cc2ccsc2)=NO1` [2-0003] the “Herbicidal effect index … (Roxb.) Solms-Laub.” value [1] was 5, the “Herbicidal effect index, Echinochloa oryzicola Vasing” value [2] was 5 and the “herbicidal effect (index per standard of Table 21), Echinochloa curs-galli (L.) Beauv. Var. crus-galli” value [5] was 5. For the same compound, the “herbicidal effect (index per standard of Table 21), Setaria viridis (L.) Beauv.” value [6] was 4, the “herbicidal effect (index per standard of Table 21), Echinochloa curs-galli (L.) Beauv. Var. crus-galli” value [3] was 5 and the “herbicidal effect (index per standard of Table 21), Setaria viridis (L.) Beauv.” value [4] was 5.
With `Cn1nc(Cl)c(CS(=O)(=O)C2=NOC(C)(C)C2)c1Cl` [3-0038] the “Herbicidal effect index … (Roxb.) Solms-Laub.” value [1] was 5, the “Herbicidal effect index, Echinochloa oryzicola Vasing” value [2] was 5 and the “herbicidal effect (index per standard of Table 21), Echinochloa curs-galli (L.) Beauv. Var. crus-galli” value [5] was 5. The “herbicidal effect (index per standard of Table 21), Setaria viridis (L.) Beauv.” value [6] was 5, the “herbicidal effect (index per standard of Table 21), Echinochloa curs-galli (L.) Beauv. Var. crus-galli” value [3] was 5 and the “herbicidal effect (index per standard of Table 21), Setaria viridis (L.) Beauv.” value [4] was 5.
